Test results as given in patent US5852001A, “Method and compounds for inhibition of ribonucleases” (The Endowment for Research in Human Biology, priority 1996, dated 1998).
Like-named read-outs stand apart in the source and are kept apart here.

Columns and labels:
RNase A [1] = target: T1, RNase A (Bos taurus, UniProt P61823); test: RNA protection assay (tRNA, agarose gel electrophoresis); type: biochemical, bovine; conditions: 0.5 mM inhibitor, 0.2 nM RNase A, pH 7.0, 20 minutes, 25° C.
T1 sequence (P61823 27-150): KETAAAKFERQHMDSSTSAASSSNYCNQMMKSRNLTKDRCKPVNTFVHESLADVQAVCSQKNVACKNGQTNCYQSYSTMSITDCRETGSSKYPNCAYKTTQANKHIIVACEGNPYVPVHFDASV
Procedure: 3 μg of tRNA were incubated in 30 μl of 20 mM Hepes, 130 mM NaCl (pH 7.0) containing 30 μg/ml bovine serum albumin, 0.2 nM RNase A and the inhibitor. After 20 minutes of incubation at 25° C., the reaction mixture was analyzed by agarose gel electrophoresis and staining with ethidium bromide. This assay was chosen since a single endonucleolytic cleavage in a polymeric RNA molecule can produce a large variation of the molecular size which can be easily detected by agarose gel electrophoresis.

RNase A [2] = target: T1, RNase A; test: Inhibition of RNase A activity toward CpA, HPLC method
Procedure: Assays were performed in 60 μl of 0.2M Mes (pH 5.9) containing 50 μg/ml nuclease-free bovine serum albumin (obtained from Worthington), 20 μM CpA, and 23-320 pM RNase A. After 14-96 minutes of incubation at 25° C., substrate and products were quantitated by C18 /HPLC with a 20 minute linear gradient from 0 to 5.6% acetonitrile in 0.1% trifluoroacetic acid at a flow rate of 1.5 ml/min recording absorbance at 254 nm. Values of Km /kcat were then calculated (according to the method of Shapiro et al., 1986, Biochemistry 25:7255-7264) and plotted vs. the inhibitor concentration [I]. The Ki value is the -[I] intercept of a three- or four-point plot of Km /kcat, vs. [I] and was obtained by linear regression.

RNase A [3] = target: T1, RNase A; conditions: pH 7; read-out: inhibition constant Ki (reported); cited from earlier work
RNase A [4] = target: T1, RNase A; type: biochemical, bovine; conditions: for Ki: 25° C.
Procedure: Inhibition was assessed from the dependence of 1/v0 on [I], where v0 represents the velocity measured during the initial 5-10% of the enzymatic reaction and [I] is the inhibitor concentration. Since the substrate concentration used in these assays is well below Km, the -[I] intercept of such a plot should closely approximate Ki for simple inhibition mechanisms.

hRNase-4 = target: T2, hRNase-4 (Homo sapiens, UniProt P34096); test: Inhibition of human ribonuclease hRNase-4, method of Example IX
T2 sequence (P34096 29-147): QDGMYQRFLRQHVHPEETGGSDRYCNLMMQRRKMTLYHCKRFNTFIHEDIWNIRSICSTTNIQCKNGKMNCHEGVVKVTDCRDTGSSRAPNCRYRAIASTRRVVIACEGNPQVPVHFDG
Procedure: (§1) Assays were performed at 25° C. with the dinucleotide cytidylyl-(3',5')-guanosine (75 μM) as substrate in 0.2M Mes (pH 5.9), 0.2M Hepes (pH 7.0), or 0.2M Hepes (pH 8.0), containing 10 μg/ml bovine serum albumin. The decrease in absorbance at 286 nm following the addition of RNase A was continuously monitored. Inhibition was assessed from the dependence of 1/v0 on [I], where v0 represents the velocity measured during the initial 5-10% of the enzymatic reaction and [I] is the inhibitor concentration. Since the substrate concentration used in these assays is well below Km, the -[I] intercept of such a plot should closely approximate Ki for simple inhibition mechanisms.

hRNase-2 = hRNase-2 (Homo sapiens, UniProt P10153); test: Inhibition of human ribonuclease hRNase-2, method of Example IX; type: biochemical
Chain of hRNase-2 (P10153 28-161): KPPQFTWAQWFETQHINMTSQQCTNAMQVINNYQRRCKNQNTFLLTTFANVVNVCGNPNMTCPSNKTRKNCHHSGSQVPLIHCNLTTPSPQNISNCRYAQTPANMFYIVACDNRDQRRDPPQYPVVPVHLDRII
Procedure: as §1

[5] = 0.2M Mes pH 5.9, 75 μM CpG, read-out: Ki at indicated pH, pH 5.9
[6] = 0.2M Hepes pH 7.0, 75 μM CpG, read-out: Ki at indicated pH, pH 7
[7] = 0.2M Hepes pH 8.0, 75 μM CpG, read-out: Ki at indicated pH, pH 8

Compound | protection of tRNA from the catalytic action of RNase A (RNase A [1]) | Ki (RNase A [2]) [µM] | Ki (RNase A [4]; [5]) [nM] | Ki (RNase A [4]; [6]) [nM] | Ki (RNase A [4]; [7]) [nM] | other results
Nc1ccn([C@@H]2O[C@H](CO)[C@@H](O)[C@H]2OP(=O)(O)O)c(=O)n1 [2'-CMP, Cytidine 2'-monophosphate] | partial protection | 3.1 |  |  |  | Ki (RNase A [3]): 147 µM
Cc1cn([C@H]2C[C@H](OP(=O)(O)OC[C@H]3O[C@@H](n4cnc5c(N)ncnc54)C[C@@H]3O)[C@@H](CO)O2)c(=O)[nH]c1=O [TpdA, thymidylyl-(3'-5')-2'-deoxyadenosine] |  | 1300 |  |  |  | 
Cc1cn([C@H]2C[C@H](OP(=O)(O)OP(=O)(O)OC[C@H]3O[C@@H](n4cnc5c(N)ncnc54)C[C@@H]3O)[C@@H](CO)O2)c(=O)[nH]c1=O [TppdA, thymidine-(3'-Pβ)-5'-diphospho-2'-deoxyadenosine] |  |  | 3500 |  |  | 
Nc1ncnc2c1ncn2[C@@H]1O[C@H](COP(=O)(O)OP(=O)(O)O[C@H]2C[C@H](n3ccc(=O)[nH]c3=O)O[C@@H]2CO)[C@@H](O)[C@H]1OP(=O)(O)O [dUppA2'p, 2'-deoxyuridine-(3'-Pβ)-5'-diphosphoadenosine-2'-phosphate] |  |  | 660 |  |  | fold higher Ki than that for dUppAp (RNase A [4]; pH 5.9): 5 fold
Nc1ncnc2c1ncn2[C@@H]1O[C@H](COP(=O)(O)OP(=O)(O)O[C@H]2C[C@H](n3ccc(=O)[nH]c3=O)O[C@@H]2CO)[C@@H](OP(=O)(O)O)[C@H]1O [dUppAp, 2'-deoxyuridine-(3'-Pβ)-5'-diphosphoadenosine-3'-phosphate] |  |  | 130 | 1100 | 44000 | 
Nc1ncnc2c1ncn2[C@@H]1O[C@H](COP(=O)(O)O)[C@@H](OP(=O)(O)O)[C@H]1O [pAp, adenosine 3',5'-diphosphate] |  | 5.6 |  |  |  | 
Cc1cn([C@H]2C[C@H](OP(=O)(O)OP(=O)(O)OC[C@H]3O[C@@H](n4cnc5c(N)ncnc54)[C@H](O)[C@@H]3OP(=O)(O)O)[C@@H](COP(=O)(O)O)O2)c(=O)[nH]c1=O [pTppAp, 5'-phosphothymidine-(3'-Pβ)-5'-diphosphoadenosine-3'-phosphate] |  |  | 52 | 180 | 28000 | Ki (hRNase-4): 270 nM; Ki (hRNase-2; pH 5.9, read-out: Ki at pH 5.9, hRNase-2): 500 nM; factor by which RNase A inhibition constant is lower than that for ppAp (RNase A [4]; pH 5.9): 4.6; factor by which RNase A inhibition constant is lower than that for ppAp (RNase A [4]; pH 7): 7.2; factor by which RNase A inhibition constant is lower than that for ppAp (RNase A [4]; pH 8): 7.8
Nc1ncnc2c1ncn2[C@@H]1O[C@H](COP(=O)(O)OP(=O)(O)O[C@H]2C[C@H](n3ccc(=O)[nH]c3=O)O[C@@H]2COP(=O)(O)O)[C@@H](OP(=O)(O)O)[C@H]1O [pdUppAp, 5'-phospho-2'-deoxyuridine-(3'-Pβ)-5'-diphosphoadenosine-3'-phosphate] |  |  | 35 | 210 | 22000 | Ki (hRNase-4): 280 nM; Ki (hRNase-2): 220 nM; factor by which RNase A inhibition constant is lower than that for ppAp (RNase A [4]; pH 5.9): 6.9; factor by which RNase A inhibition constant is lower than that for ppAp (RNase A [4]; pH 7): 6.2; factor by which RNase A inhibition constant is lower than that for ppAp (RNase A [4]; pH 8): 9.9
Nc1ncnc2c1ncn2[C@@H]1O[C@H](COP(=O)(O)OP(=O)(O)O)[C@@H](OP(=O)(O)O)[C@H]1O [ppAp, 5'-diphosphoadenosine-3'-phosphate] | fully protecting | 0.24 | 240 | 1300 | 217000 | Ki (hRNase-2): 250 nM
uridine-vanadate | partial protection |  |  |  |  | Ki (RNase A [3]): 10 µM
